In patent publication US20220380341A1, “INHIBITORS OF HIV-1 NEF FOR THE TREATMENT OF HIV DISEASE” (priority 2018, published 2022):
Read-outs that look alike come from different tables or passages of the source.

Columns and labels:
HIV-1 NefNL4-3 = HIV-1 NefNL4-3 (Human immunodeficiency virus type 1 group M subtype B, UniProt P03406, A33V/T15A/T51N/V11I); assay: Surface plasmon resonance binding to recombinant full-length Nef (NL4-3); conditions: for RU30/RUNef (extent of binding): response units at 30 μM relative to Nef immobilized on the SPR chip; for Nef NL4-3 Binding, SPR 1:1 or 2-site fitting KD1: 1:1 Langmuir fit where the KD2 cell says '1 to 1 fitting', else 2-site fit
HIV-1NL4-3 = assay: HIV-1 infectivity assay in TZM-bl reporter cell line (LTR-luciferase, 48 h); type: cell-based; conditions: Human immunodeficiency virus 1, TZM-bl
In short: (§1)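 Luciferase read-out 48 h post-infection; compound at 1 μM during HIV-1NL4-3 infection of TZM-bl cells. Percent inhibition scaled to DMSO wild-type virus (0%) and DMSO Nef-defective virus (100% of Nef-dependent effect). Viability checked separately in uninfected cells by Cell Titer Blue.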

TZM-bl cell line = type: cell-based; conditions: human, 1 μM
In short: as §1

[1] = 48 h, Table 1, TZM-bl cells, 1 μM, 48 h, 100% = Nef-defective HIV-1, read-out: HIV-1 Infectivity % Inhibition Norm. to Δ-Nef @ 1 μM
[2] = KD, M, Table 4, SPR fit 1:1 Langmuir, KD = koff/kon
[3] = Table 4, 1:1 Langmuir fit, T = 1/koff
[4] = 1.0 μM, TZM-bl reporter cell line, Table 4, read-out: % Infectivity Inhibition
[5] = KD, M, Table 4, SPR fit 2-step induced fit, KD = koff/kon × koff2/(koff2 + kon2)
[6] = Nef NL4-3 Binding, SPR 1:1 or 2-site fitting KD2, Table 1, 2-site fit, second component
[7] = Nef NL4-3 Binding, SPR 2-state fitting KD, Table 1, 2-step induced-fit model
[8] = Table 4, 2-step induced fit, T = 1/koff2

SMILES | Kd (HIV-1 NefNL4-3) | inhibition at 1 µM (HIV-1NL4-3; [1]) | Percent Viability @ 1 μM (TZM-bl cells) (TZM-bl cell line) | Kd (HIV-1 NefNL4-3; [2]) | T, minutes (residence time) (HIV-1 NefNL4-3; [3]) | RU30/RUNef (extent of binding) (HIV-1 NefNL4-3) | inhibition at 1 µM (HIV-1NL4-3; [4]) | % Cell Viability (TZM-bl cell line) | Kd (HIV-1 NefNL4-3; [5]) | Kd (HIV-1 NefNL4-3; [6]) | Kd (HIV-1 NefNL4-3; [7]) | T, minutes (residence time) (HIV-1 NefNL4-3; [8]) | Nef NL4-3 Binding, SPR 1:1 or 2-site fitting KD1 (HIV-1 NefNL4-3; Table 1) | Kd (HIV-1 NefNL4-3; read-out: Nef NL4-3 Binding, SPR 1:1 or 2-site fitting KD2, Table 1, 2-site fit, second component)
CC(=O)N1CCC(c2c(-c3ccc(C(F)(F)F)cc3)nn(-c3nc4ccccc4[nH]3)c2O)CC1 [Compound I-713, 1-{4-[1-(1H-1,3-benzodiazol-2-yl)-5-hydroxy-3-[4-(trifluoromethyl)phenyl]-1H-pyrazol-4-yl]piperidin-1-yl}ethan-1-one] | 378000 nM | 27.8% | 76.8% | – | – | – | – | – | – | – | – | – | – | –
CC(=O)N1CCC(CCc2c(-c3ccc(C(F)(F)F)cn3)nn(-c3nc4ccccc4[nH]3)c2O)CC1 [Compound I-714, 1-(4-{2-[1-(1H-1,3-benzodiazol-2-yl)-5-hydroxy-3-[5-(trifluoromethyl)pyridin-2-yl]-1H-pyrazol-4-yl]ethyl}piperidin-1-yl)ethan-1-one] | 1110 nM | 63.6% | 98.3% | 1110 nM | 3.64E + 00 minutes | 1.32E- 03 | 63.6% | 98.3% | – | – | – | – | – | –
COC(=O)N1CCC(CCc2c(-c3ccc(C(F)(F)F)cn3)nn(-c3nc4ccccc4[nH]3)c2O)CC1 [Compound I-715, methyl 4-{2-[1-(1H-1,3-benzodiazol-2-yl)-5-hydroxy-3-[5-(trifluoromethyl)pyridin-2-yl]-1H-pyrazol-4-yl]ethyl}piperidine-1-carboxylate] | 686 nM | 25.2% | 99.1% | – | – | 5.47E- 03 | 25.2% | 99.1% | 2510 nM | 1330 nM | 2510 nM | 3.76E + 00 minutes | – | –
CS(=O)(=O)N1CCC(CCc2c(-c3ccc(C(F)(F)F)cn3)nn(-c3nc4ccccc4[nH]3)c2O)CC1 [Compound I-716] | 1970 nM | 22.8% | 97.1% | – | – | 5.13E- 03 | 22.8% | 97.1% | 4370 nM | – | 4370 nM | 3.22E + 00 minutes | – | –
CC(C)OC(=O)N1CCC(CCc2c(-c3ccc(Br)cn3)nn(-c3nc4ccccc4[nH]3)c2O)CC1 [Compound I-717, propan-2-yl4-{2-[1-(1H-1,3-benzodiazol-2-yl)-3-(5-bromopyridin-2-yl)-5-hydroxy-1H-pyrazol-4-yl]ethyl}piperidine-1-carboxylate] | – | -1.8% | 104.1% | – | – | – | – | – | – | – | – | – | No Interaction | –
CS(=O)(=O)N1CCC(Cc2c(-c3ccc(C(F)(F)F)cc3)nn(-c3nc4ccccc4[nH]3)c2O)CC1 [Compound I-718, 1-(1H-1,3-benzodiazol-2-y1)-4-[(1-methanesulfonylpiperidin-4-yl)methyl]-3-[4-(trifluoromethyl)phenyl]-1H-pyrazol-5-ol] | 597 nM | 56.3% | 89.1% | 597 nM | 3.62E + 00 minutes | 1.22E- 03 | 56.3% | 89.1% | – | – | – | – | – | –
CC(=O)N1CCC(CCc2c(-c3ccc(C(F)(F)F)cc3)nn(-c3nc4ccccc4[nH]3)c2O)CC1 [Compound I-719, 1-(4-{2-[1-(1H-1,3-benzodiazol-2-yl)-5-hydroxy-3-[4-(trifluoromethyl)phenyl]-1H-pyrazol-4-yl]ethyl}piperidin-1-yl)ethan-1-one] | 2200 nM | -8.3% | 98.0% | – | – | 9.42E- 03 | 0% | 98.0% | 451 nM | – | 451 nM | 4.44E + 01 minutes | – | –
CCOC(=O)N1CCC(c2nn(-c3nc4ccccc4[nH]3)c(O)c2CCC2CCOCC2)CC1 [Compound I-723, ethyl 4-[1-(1H-1,3-benzodiazol-2-yl)-5-hydroxy-4-[2-(oxan-4-yl)ethyl]-1H-pyrazol-3-yl]piperidine-1-carboxylate] | 2100 nM | -18.1% | 92.2% | – | – | 9.19E- 03 | 0% | 92.2% | 9090 nM | – | 9090 nM | 5.21E + 00 minutes | – | 12200 nM
CN(C)S(=O)(=O)N1CCC(c2nn(-c3nc4ccccc4[nH]3)c(O)c2CCC2CCOCC2)CC1 [Compound I-724, 4-[1-(1H-1,3-benzodiazol-2-yl)-5-hydroxy-4-[2-(oxan-4-yl)ethyl]-1H-pyrazol-3-yl]-N,N-dimethylpiperidine-1-sulfonamide] | – | 55.8% | 98.6% | – | – | – | – | – | – | – | – | – | No Interaction | –
CC(C)OC(=O)N1CCC(c2nn(-c3nc4ccccc4[nH]3)c(O)c2CC2CCOCC2)CC1 [Compound I-725, propan-2-yl 4-[1-(1H-1,3-benzodiazol-2-yl)-5-hydroxy-4-[(oxan-4-yl)methyl]-1H-pyrazol-3-yl]piperidine-1-carboxylate] | 3290 nM | 37.4% | 95.6% | 3290 nM | 4.73E + 00 minutes | 3.88E- 03 | 37.4% | 95.6% | – | – | – | – | – | –
CN1CCN(CC(=O)N2CCC(c3nn(-c4nc5ccccc5[nH]4)c(O)c3CCc3ccc(F)cc3)CC2)CC1 [Compound I-726, 1-{4-[1-(1H-1,3-benzodiazol-2-yl)-4-[2-(4-fluorophenyl)ethyl]-5-hydroxy-1H-pyrazol-3-yl]piperidin-1-yl}-2-(4-methylpiperazin-1-yl)ethan-1-one] | – | -4.6% | 102.4% | – | – | – | – | – | – | – | – | – | No Interaction | –
CO[C@H](C)C(=O)N1CCC(c2nn(-c3nc4ccccc4[nH]3)c(O)c2CCc2ccc(F)cc2)CC1 [Compound I-727, (2R)-1-{4-[1-(1H-1,3-benzodiazol-2-yl)-4-[2-(4-fluorophenyl)ethyl]-5-hydroxy-1H-pyrazol-3-yl]piperidin-1-yl}-2-methoxypropan-1-one] | – | 8.7% | 95.1% | – | – | – | – | – | – | – | – | – | No Interaction | –
O=C(c1cnccn1)N1CCC(c2nn(-c3nc4ccccc4[nH]3)c(O)c2CCc2ccc(F)cc2)CC1 [Compound I-728, 1-(1H-1,3-benzodiazol-2-yl)-4-[2-(4-fluorophenyl)ethyl]-3-[1-(pyrazine-2-carbonyl)piperidin-4-yl]-1H-pyrazol-5-ol] | 142 nM | 53.7% | 99.1% | – | – | – | – | – | – | – | – | – | – | –
O=C(c1ccccn1)N1CCC(c2nn(-c3nc4ccccc4[nH]3)c(O)c2CCc2ccc(F)cc2)CC1 [Compound I-730, 1-(1H-1,3-benzodiazol-2-yl)-4-[2-(4-fluorophenyl)ethyl]-3-[1-(pyridine-2-carbonyl)piperidin-4-yl]-1H-pyrazol-5-ol] | – | 24.6% | 95.1% | – | – | – | – | – | – | – | – | – | No Interaction | –
O=C(c1cccc(O)n1)N1CCC(c2nn(-c3nc4ccccc4[nH]3)c(O)c2CCc2ccc(F)cc2)CC1 [Compound I-731, 6-{4-[1-(1H-1,3-benzodiazol-2-yl)-4-[2-(4-fluorophenyl)ethyl]-5-hydroxy-1H-pyrazol-3-yl]piperidine-1-carbonyl}pyridin-2-ol] | – | 11.5% | 98.9% | – | – | – | – | – | – | – | – | – | No Interaction | –
CC[C@H](C)[C@H](O)C(=O)N1CCC(c2nn(-c3nc4ccccc4[nH]3)c(O)c2CCc2ccc(F)cc2)CC1 [Compound I-732, (2S,3S)-1-{4-[1-(1H-1,3-benzodiazol-2-yl)-4-[2-(4-fluorophenyl)ethyl]-5-hydroxy-1H-pyrazol-3-yl]piperidin-1-yl}-2-hydroxy-3-methylpentan-1-one] | 630 nM | 85.5% | 91.0% | – | – | 3.09E- 03 | 85.5% | 91.0% | 4210 nM | 1770 nM | 4210 nM | 3.78E + 00 minutes | – | –
CC[C@H](O)C(=O)N1CCC(c2nn(-c3nc4ccccc4[nH]3)c(O)c2CCc2ccc(F)cc2)CC1 [Compound I-733, (2S)-1-{4-[1-(1H-1,3-benzodiazol-2-yl)-4-[2-(4-fluorophenyl)ethyl]-5-hydroxy-1H-pyrazol-3-yl]piperidin-1-yl}-2-hydroxybutan-1-one] | 26900 nM | 56.5% | 98.8% | – | – | – | – | – | – | – | – | – | – | –
O=C(Cc1ccncc1)N1CCC(c2nn(-c3nc4ccccc4[nH]3)c(O)c2CCc2ccc(F)cc2)CC1 [Compound I-734, 1-{4-[1-(1H-1,3-benzodiazol-2-yl)-4-[2-(4-fluorophenyl)ethyl]-5-hydroxy-1H-pyrazol-3-yl]piperidin-1-yl}-2-(pyridin-4-yl)ethan-1-one] | 576 nM | -8.2% | 96.0% | – | – | – | – | – | – | – | – | – | – | –
